Results taken from ChEMBL document CHEMBL1138499, “Anti-AIDS agents. 78. Design, synthesis, metabolic stability assessment, and antiviral evaluation of novel betulinic acid derivatives as potent anti-human immunodeficiency virus (HIV) agents” (J Med Chem, 2009).

How the values were obtained:
[1] = test system: Human immunodeficiency virus 1; assay: Antiviral activity against HIV1 3B infected in human MT2 cells assessed as p24 antigen level after 4 days by ELISA; assay type: functional, organism-based; conditions: Human immunodeficiency virus 1, 3B, MT2, 96 h
[2] = Metabolic stability in human liver microsomes assessed as drug remaining at 1 mg/mL after 120 mins by HPLC; assay type: ADME, Microsome; conditions: read-out: Stability
[3] = test system: MT2; conditions: human
Description: Cytotoxicity against human MT2 cells by XTT assay

[4] = Metabolic stability in human liver microsomes assessed as drug remaining at 1 mg/mL after 60 mins by HPLC; assay type: ADME, Microsome; conditions: read-out: Stability
[5] = Metabolic stability in human liver microsomes assessed as drug remaining at 1 mg/mL after 15 mins by HPLC; assay type: ADME, Microsome; conditions: read-out: Stability
[6] = Metabolic stability in human liver microsomes assessed as drug remaining at 1 mg/mL after 5 mins by HPLC; assay type: ADME, Microsome; conditions: read-out: Stability
[7] = Metabolic stability in human liver microsomes assessed as drug remaining at 1 mg/mL after 30 mins by HPLC; assay type: ADME, Microsome; conditions: read-out: Stability
[8] = Therapeutic index, ratio of CC50 for human MT2 cells to EC50 for HIV1 3B; assay type: cell-based; conditions: read-out: TI
[9] = test system: Human immunodeficiency virus 1; assay: Antiviral activity against HIV1 NL4-3 infected in human MT4 cells assessed as p24 antigen level after 4 days by ELISA; assay type: functional, organism-based; conditions: Human immunodeficiency virus 1, NL4-3, MT4, 96 h
[10] = test system: MT4; assay: Cytotoxicity against human MT4 cells by XTT assay; assay type: cell-based
[11] = test system: Human immunodeficiency virus 1; assay: Antiviral activity against HIV1 3B infected in human MT2 cells assessed as p24 antigen level at their respective CC50 concentration after 4 days by ELISA; assay type: functional, organism-based
[12] = Therapeutic index, ratio of CC50 for human MT4 cells to EC50 for HIV1 NL4-3; assay type: cell-based; conditions: read-out: TI

C=C(C)[C@@H]1CC[C@]2(C(=O)NCCCCCCCC(=O)O)CC[C@]3(C)[C@H](CC[C@@H]4[C@@]5(C)CC[C@H](O)C(C)(C)[C@@H]5CC[C@]43C)[C@@H]12
EC50 [1]: 3.3 µM
remaining at 2 h, 1 mg/mL [2]: 7.9%
CC50 [3]: 33.4 µM
remaining at 1 h, 1 mg/mL [4]: 40.1%
remaining at 0.25 h, 1 mg/mL [5]: 70.7%
remaining at 5 min, 1 mg/mL [6]: 93.4%
remaining at 0.5 h, 1 mg/mL [7]: 61.9%
selectivity ratio [8]: 10.1

C=C(C)[C@@H]1CC[C@]2(C(=O)NCCCCCCCC(=O)N[C@@H](CC(C)C)[C@H](O)CC(=O)O)CC[C@]3(C)[C@H](CC[C@@H]4[C@@]5(C)CC[C@H](O)C(C)(C)[C@@H]5CC[C@]43C)[C@@H]12
EC50 [9]: 0.089 µM
CC50 [10]: > 10 µM

C=C(C)[C@@H]1CC[C@]2(C(=O)N[C@@H](CC(C)C)C(=O)O)CC[C@]3(C)[C@H](CC[C@@H]4[C@@]5(C)CC[C@H](O)C(C)(C)[C@@H]5CC[C@]43C)[C@@H]12
EC50 [11]: Not Active
CC50 [3]: 29.8 µM

C=C(C)[C@@H]1CC[C@]2(C(=O)N3CCC(CCCC(=O)N4CCOCC4)CC3)CC[C@]3(C)[C@H](CC[C@@H]4[C@@]5(C)CC[C@H](OC(=O)CC(C)(C)C(=O)O)C(C)(C)[C@@H]5CC[C@]43C)[C@@H]12
EC50 [9]: 0.07 µM
EC50 [1]: 0.011 µM
CC50 [3]: 19.2 µM
CC50 [10]: 8.8 µM
selectivity ratio [12]: 121
selectivity ratio [8]: 1750

C=C(CBr)[C@@H]1CC[C@]2(C(=O)N[C@@H](CC(C)C)C(=O)O)CC[C@]3(C)[C@H](CC[C@@H]4[C@@]5(C)CC[C@H](O)C(C)(C)[C@@H]5CC[C@]43C)[C@@H]12
EC50 [11]: Not Active
CC50 [3]: 26.8 µM

C=C(CBr)[C@@H]1CC[C@]2(C(=O)N[C@@H](CC(C)C)C(=O)O)CC[C@]3(C)[C@H](CC[C@@H]4[C@@]5(C)CC[C@H](OC(=O)CC(C)(C)C(=O)O)C(C)(C)[C@@H]5CC[C@]43C)[C@@H]12
EC50 [1]: 0.011 µM
CC50 [3]: 33.2 µM
selectivity ratio [8]: 3020

C=C(COCCC)[C@@H]1CC[C@]2(C(=O)N[C@@H](CC(C)C)C(=O)O)CC[C@]3(C)[C@H](CC[C@@H]4[C@@]5(C)CC[C@H](O)C(C)(C)[C@@H]5CC[C@]43C)[C@@H]12
EC50 [11]: Not Active
CC50 [3]: 25.3 µM

C=C(COCCN1CCOCC1)[C@@H]1CC[C@]2(C(=O)NCCCCCCCC(=O)NC)CC[C@]3(C)[C@H](CC[C@@H]4[C@@]5(C)CC[C@H](O)C(C)(C)[C@@H]5CC[C@]43C)[C@@H]12
EC50 [9]: 0.09 µM
EC50 [1]: 0.09 µM
CC50 [3]: 22.3 µM
CC50 [10]: > 10 µM
selectivity ratio [12]: > 138
selectivity ratio [8]: 250

C=C(C)[C@@H]1CC[C@]2(C(=O)N[C@@H](CC(C)C)C(=O)O)CC[C@]3(C)[C@H](CC[C@@H]4[C@@]5(C)CC[C@H](NC(=O)CC(C)(C)C(=O)O)C(C)(C)[C@@H]5CC[C@]43C)[C@@H]12
EC50 [1]: 13.2 µM
CC50 [3]: 35.9 µM
selectivity ratio [8]: 2.7

C=C(CBr)[C@@H]1CC[C@]2(C(=O)NCCCCCCCC(=O)O)CC[C@]3(C)[C@H](CC[C@@H]4[C@@]5(C)CC[C@H](O)C(C)(C)[C@@H]5CC[C@]43C)[C@@H]12
EC50 [1]: 2.3 µM
CC50 [3]: 36.9 µM
selectivity ratio [8]: 16.1

C=C(C)[C@@H]1CC[C@]2(C(=O)N3CCC(CCCC(=O)NC)CC3)CC[C@]3(C)[C@H](CC[C@@H]4[C@@]5(C)CC[C@H](OC(=O)CC(C)(C)C(=O)O)C(C)(C)[C@@H]5CC[C@]43C)[C@@H]12
EC50 [9]: 0.24 µM
EC50 [1]: 0.067 µM
CC50 [3]: 33.3 µM
CC50 [10]: > 10 µM
selectivity ratio [8]: 497

C=C(C)[C@@H]1CC[C@]2(C(=O)N3CCC(CCCC(=O)NCCN4CCOCC4)CC3)CC[C@]3(C)[C@H](CC[C@@H]4[C@@]5(C)CC[C@H](OC(=O)CC(C)(C)C(=O)O)C(C)(C)[C@@H]5CC[C@]43C)[C@@H]12
EC50 [9]: 0.035 µM
EC50 [1]: 0.007 µM
CC50 [3]: 17.3 µM
CC50 [10]: 8.5 µM
selectivity ratio [12]: 284
selectivity ratio [8]: 2470

C=C(C)[C@@H]1CC[C@]2(C(=O)N3CCC(CCCC(=O)O)CC3)CC[C@]3(C)[C@H](CC[C@@H]4[C@@]5(C)CC[C@H](O)C(C)(C)[C@@H]5CC[C@]43C)[C@@H]12
EC50 [1]: 21.7 µM
remaining at 2 h, 1 mg/mL [2]: 53.8%
CC50 [3]: 41 µM
remaining at 1 h, 1 mg/mL [4]: 62.7%
remaining at 0.25 h, 1 mg/mL [5]: 97.6%
remaining at 5 min, 1 mg/mL [6]: 102%
remaining at 0.5 h, 1 mg/mL [7]: 81.4%
selectivity ratio [8]: 1.9

C=C(COCCc1ccc(F)cc1)[C@@H]1CC[C@]2(C(=O)N[C@@H](CC(C)C)C(=O)O)CC[C@]3(C)[C@H](CC[C@@H]4[C@@]5(C)CC[C@H](O)C(C)(C)[C@@H]5CC[C@]43C)[C@@H]12
EC50 [11]: Not Active
CC50 [3]: 24.4 µM

C=C(C)[C@@H]1CC[C@]2(C(=O)N3CCC(CCCC(=O)O)CC3)CC[C@]3(C)[C@H](CC[C@@H]4[C@@]5(C)CC[C@H](OC(=O)CC(C)(C)C(=O)O)C(C)(C)[C@@H]5CC[C@]43C)[C@@H]12
EC50 [1]: 0.015 µM
CC50 [3]: 20.8 µM
selectivity ratio [8]: 1390

C=C(COCCc1ccc(Cl)cc1)[C@@H]1CC[C@]2(C(=O)N[C@@H](CC(C)C)C(=O)O)CC[C@]3(C)[C@H](CC[C@@H]4[C@@]5(C)CC[C@H](O)C(C)(C)[C@@H]5CC[C@]43C)[C@@H]12
EC50 [1]: 27.8 µM
CC50 [3]: 34.6 µM
selectivity ratio [8]: 1.2

C=C(COCCN1CCOCC1)[C@@H]1CC[C@]2(C(=O)N[C@@H](CC(C)C)C(=O)O)CC[C@]3(C)[C@H](CC[C@@H]4[C@@]5(C)CC[C@H](O)C(C)(C)[C@@H]5CC[C@]43C)[C@@H]12
EC50 [1]: 26.6 µM
CC50 [3]: 35.8 µM
selectivity ratio [8]: 1.4

C=C(CON1CCOCC1)[C@@H]1CC[C@]2(C(=O)N[C@@H](CC(C)C)C(=O)O)CC[C@]3(C)[C@H](CC[C@@H]4[C@@]5(C)CC[C@H](O)C(C)(C)[C@@H]5CC[C@]43C)[C@@H]12
EC50 [11]: Not Active
CC50 [3]: 27.5 µM

C=C(COCCc1ccccc1)[C@@H]1CC[C@]2(C(=O)N[C@@H](CC(C)C)C(=O)O)CC[C@]3(C)[C@H](CC[C@@H]4[C@@]5(C)CC[C@H](O)C(C)(C)[C@@H]5CC[C@]43C)[C@@H]12
EC50 [11]: Not Active
CC50 [3]: 21.7 µM

C=C(CO)[C@@H]1CC[C@]2(C(=O)NCCCCCCCC(=O)O)CC[C@]3(C)[C@H](CC[C@@H]4[C@@]5(C)CC[C@H](O)C(C)(C)[C@@H]5CC[C@]43C)[C@@H]12
EC50 [1]: 14.8 µM
CC50 [3]: 40.7 µM
selectivity ratio [8]: 2.8

C=C(COCCc1ccc(OC)cc1)[C@@H]1CC[C@]2(C(=O)N[C@@H](CC(C)C)C(=O)O)CC[C@]3(C)[C@H](CC[C@@H]4[C@@]5(C)CC[C@H](O)C(C)(C)[C@@H]5CC[C@]43C)[C@@H]12
EC50 [11]: Not Active
CC50 [3]: 16.7 µM

C=C(COCC)[C@@H]1CC[C@]2(C(=O)N[C@@H](CC(C)C)C(=O)O)CC[C@]3(C)[C@H](CC[C@@H]4[C@@]5(C)CC[C@H](O)C(C)(C)[C@@H]5CC[C@]43C)[C@@H]12
EC50 [11]: Not Active
CC50 [3]: 40.7 µM

C=C(COCCc1ccc(Br)cc1)[C@@H]1CC[C@]2(C(=O)N[C@@H](CC(C)C)C(=O)O)CC[C@]3(C)[C@H](CC[C@@H]4[C@@]5(C)CC[C@H](O)C(C)(C)[C@@H]5CC[C@]43C)[C@@H]12
EC50 [11]: Not Active
CC50 [3]: 20.8 µM

C=C(COCCN1CCOCC1)[C@@H]1CC[C@]2(C(=O)NCCCCCCCC(=O)O)CC[C@]3(C)[C@H](CC[C@@H]4[C@@]5(C)CC[C@H](O)C(C)(C)[C@@H]5CC[C@]43C)[C@@H]12
EC50 [1]: 1.8 µM
CC50 [3]: 24.8 µM
selectivity ratio [8]: 13.8

C=C(CO)[C@@H]1CC[C@]2(C(=O)N[C@@H](CC(C)C)C(=O)O)CC[C@]3(C)[C@H](CC[C@@H]4[C@@]5(C)CC[C@H](O)C(C)(C)[C@@H]5CC[C@]43C)[C@@H]12
EC50 [11]: Not Active
CC50 [3]: 30.7 µM

C=C(COCCCC)[C@@H]1CC[C@]2(C(=O)N[C@@H](CC(C)C)C(=O)O)CC[C@]3(C)[C@H](CC[C@@H]4[C@@]5(C)CC[C@H](O)C(C)(C)[C@@H]5CC[C@]43C)[C@@H]12
EC50 [11]: Not Active
CC50 [3]: 24.9 µM

C=C(C)[C@@H]1CC[C@]2(C(=O)N3CCC(CCCC(=O)O)CC3)CC[C@]3(C)[C@H](CC[C@@H]4[C@@]5(C)CC[C@H](OC(=O)CCC(C)(C)C(=O)O)C(C)(C)[C@@H]5CC[C@]43C)[C@@H]12
EC50 [1]: 0.23 µM
CC50 [3]: 33.2 µM
selectivity ratio [8]: 145

C=C(C)[C@@H]1CC[C@]2(C(=O)NCCCCCCCNC(C)=O)CC[C@]3(C)[C@H](CC[C@@H]4[C@@]5(C)CC[C@H](O)C(C)(C)[C@@H]5CC[C@]43C)[C@@H]12
EC50 [9]: 0.092 µM
CC50 [10]: > 10 µM
selectivity ratio [12]: > 150

C=C(C)[C@@H]1CC[C@]2(C(=O)N3CCC(CCCC(=O)NCCCN4CCOCC4)CC3)CC[C@]3(C)[C@H](CC[C@@H]4[C@@]5(C)CC[C@H](OC(=O)CC(C)(C)C(=O)O)C(C)(C)[C@@H]5CC[C@]43C)[C@@H]12
EC50 [9]: 0.031 µM
EC50 [1]: 0.006 µM
CC50 [3]: 18.5 µM
CC50 [10]: 8.6 µM
selectivity ratio [12]: 246
selectivity ratio [8]: 3090

Cc1cn([C@H]2C[C@H](N=[N+]=[N-])[C@@H](CO)O2)c(=O)[nH]c1=O [ZIDOVUDINE]
CC50 [3]: 1870 µM
